Data taken from patent US20260308128A1, “BETA-ELEMENE DERIVATIVE CONTAINING PHOTOAFFINITY GROUP DIAZIRINE, AND PREPARATION METHOD AND USE THEREOF AS PHOTOAFFINITY MOLECULAR PROBE” (HANGZHOU NORMAL UNIVERSITY, priority 2022, published 2026).
Like-named read-outs stand apart in the source and are kept apart here.

Tests used:
[1] = tested on: A549 human non-small cell lung cancer cells; assay: Tumor cell proliferation inhibition (CCK-8), A549; assay type: cell-based; settings: for IC50: Homo sapiens, read-out: IC50 A549; for IC50 times lower than that of β-elemene: human A549 lung cancer cells, versus β-elemene
Description: (§1) Human liver cancer cell Huh1, human lung cancer cell A549, and human brain glioma cell U87-MG.
(§2) • (1) A cell laboratory was routinely disinfected and a clean bench was subjected to ultraviolet radiation for more than 30 min. • (2) A culture solution (DMEM) and 0.25% trypsin were preheated in a constant-temperature water bath at 37° C. for 20 min, and dimethyl sulfoxide (DMSO) was refrigerated in a refrigerator at 4° C. for 30 min. • (3) A cryopreserved tube was taken out of a liquid nitrogen storage tank, immediately placed in a 37° C. water bath and shaken rapidly until s cryopreserved liquid was completely thawed. • (4) A cell suspension was transferred into a centrifuge tube, the culture solution was slowly added thereto, and the centrifuge tube was transferred into a centrifuge for centrifugation (120×g, 5 min). • (5) A cell concentration was adjusted with the culture solution, and resulting adjusted cells were shaken well, and placed in a 37° C., 5% CO2 incubator for culture. • (6) After the cells had attached for 24 h, the culture solution thereof was changed. When a cell density reached 80% to 90%, the cells were digested with trypsin and then subcultured.
(§3) • (1) A A549 cell suspension was adjusted to 5×10^4 cells/mL using a DMEM culture medium. […] The cells were cultured in the incubator for 1 h and an absorbance at 450 nm was measured using a THERMO FISHER Multiskan FC microplate reader. • (5) IBM SPSS Statistics 22.0 software was used to plot an S-shaped dose-survival curve using a non-linear regression model, and a survival rate and an inhibition rate were calculated using the following formulas:
(§4) [formula] [formula] • As: absorbance of the experimental well (culture medium containing cells, CCK-8, and the drug to be tested) • Ac: absorbance of the control well (culture medium containing cells, CCK-8, and no drug to be tested) • Ab: absorbance of the blank wells (culture medium without cells and drug to be tested, CCK-8)
(§5) According to the above experimental method, CCK-8 was used to determine the proliferation inhibitory effects of the isolated and purified β-elemene monomer, elemene photoaffinity probe and control compounds on three human cancer cells, namely A549 human non-small cell lung cancer cells, U87-MG human malignant glioma cells, and Huh1 human liver cancer cells.

[2] = tested on: Huh1 human liver cancer cells; assay: Tumor cell proliferation inhibition (CCK-8), Huh1; assay type: cell-based; settings: for IC50: Homo sapiens, read-out: IC50 Huh1; for IC50 times lower than that of β-elemene: human Huh1 liver cancer cells, versus β-elemene
Description: as §1, §2, §3, §4, §5

[3] = tested on: U87-MG human malignant glioma cells; assay: Tumor cell proliferation inhibition (CCK-8), U87-MG; assay type: cell-based; settings: for IC50: Homo sapiens, U-87 MG, 48 h, read-out: IC50 U87; for IC50 times lower than that of β-elemene: human U87-MG malignant glioma cells, versus β-elemene
Description: as §1, §2, §3, §4, §5

[4] = tested on: Huh1 liver cancer cells; assay: Pre-targeted imaging using molecular probe in living cells (365 nm photo-crosslinking, N3-TAMRA click, confocal microscopy); assay type: cell-based, human
Description: In order to determine whether the molecular probe could enter the cell and explore the binding site of the targeted biomacromolecule thereof, the experiment was conducted as follows.
DMEM culture medium, PBS, 4% paraformaldehyde tissue cell fixative, Triton X-100, 5% BSA blocking solution, DAPI staining solution, Cu2SO4, sodium ascorbate, THPTA, N3-TAMRA
• (1) 10^5 Huh1 liver cancer cells were inoculated into glass-bottomed culture dishes and cultured in a 37° C., 5% CO2 incubator until the cells adhered to wall. • (2) DMEM culture medias containing different drug concentrations were added to the culture dishes and incubated overnight in the 37° C., 5% CO2 incubator. • (3) After removing the drug-containing culture mediums, resulting cells were washed with pre-cooled PBS ([…]) for 3 min, placed on ice, and irradiated at 365 nm for 15 min. • (4) Resulting irradiated cells were treated with 1 mL of 4% paraformaldehyde tissue cell fixative for 15 min, the paraformaldehyde tissue cell fixative was removed, and resulting cells were washed with pre-cooled PBS. • (5) Resulting washed cells were permeabilized with 500 μL of 0.1% Triton X-100 in PBS for 10 min, then blocked with 1 mL of 5% BSA blocking solution for 30 min, the blocking solution was removed, and resulting cells were washed with pre-cooled PBS (3×1 mL). • (6) 200 μL of freshly prepared Click reaction solution (20 μM N3-TAMRA, 400 μM Cu2SO4, 400 μM THPTA, 2 mM sodium ascorbate) was added to washed cells obtained in step • (5), incubated under shaking at room temperature for 2 h, the reaction solution was removed, and resulting cells were washed with pre-cooled PBS (3×1 mL) for 3 min. • (7) 200 μL of DAPI staining solution was added to washed cells obtained in step (6) and stained for 6 min, the staining solution was removed, and resulting cells were washed with pre-cooled PBS (3×1 mL) for 3 min, and then imaged with a laser scanning confocal microscope.
According to the above experimental method, the cell images of the β-elemene photoaffinity probe (Compound 2) and a control Compound 6 and β-elemene were measured.

Row | IC50 ([1]; A549 cells, 48 h, CCK-8) [µM] | IC50 times lower than that of β-elemene [1] | IC50 ([2]; HuH-1, Huh1 cells, 48 h, CCK-8) [µM] | IC50 times lower than that of β-elemene [2] | IC50 ([3]; U87-MG cells, CCK-8) [µM] | IC50 times lower than that of β-elemene [3] | SMILES | intracellular Rhodamine Red fluorescence, with UV irradiation ([4]; 20 μM, with UV irradiation (365 nm, 15 min)) | intracellular Rhodamine Red fluorescence, without UV irradiation ([4]; 20 μM, without UV irradiation) | binding of the probe to the target ([4]; conclusion from competition imaging) | IC50 ([1]; A549, 48 h) [µM] | IC50 ([2]; HuH-1, 48 h) [µM] | IC50 [3] [µM] | intensity of intracellular Rhodamine Red fluorescence of Compound 2 in presence of competitor ([4]; competitor β-elemene (50 μM) with Compound 2 (20 μM), UV irradiation) | competitive binding ([4]; versus Compound 2, conclusion from competition imaging)
1 | 29.3 ± 1.63 | more than 5 times | 18.7 ± 1.54 | more than 10 times | 38.7 ± 1.91 |  | C#CCCC(=O)NCCOCCOCCC(=O)N[C@H](CCC1(C)N=N1)C(=O)N1CCN(CC(=C)[C@@H]2CC[C@@](C)(C=C)[C@H](C(=C)C)C2)CC1 [Compound 1] |  |  |  |  |  |  |  | 
2 | 37.8 ± 3.36 | more than 5 times | 20.12 ± 0.16 | more than 10 times | 25.5 ± 4.79 |  | C#CCCC(=O)NCCOCCOCCC(=O)N[C@H](CCC1(C)N=N1)C(=O)NCCN1CCN(CC(=C)[C@@H]2CC[C@@](C)(C=C)[C@H](C(=C)C)C2)CC1 [Compound 2] | strong intracellular Rhodamine Red fluorescence | no intracellular Rhodamine Red fluorescence | non-covalent |  |  |  |  | 
3 | 44.6 ± 7.68 |  | 22.8 ± 3.07 | more than 10 times | 19.3 ± 3.3 | more than 10 times | C#CCCC(=O)NCCOCCOCCC(=O)N[C@H](CCC1(C)N=N1)C(=O)NCCOCCOCCN1CCN(CC(=C)[C@@H]2CC[C@@](C)(C=C)[C@H](C(=C)C)C2)CC1 [Compound 3] |  |  |  |  |  |  |  | 
4 | 48.4 ± 1.7 |  | 54.5 ± 3.26 |  | 47.2 ± 2.21 |  | C#CCCC(=O)NCCOCCOCCC(=O)N[C@H](CCC1(C)N=N1)C(=O)N1CC2CN(CC(=C)[C@@H]3CC[C@@](C)(C=C)[C@H](C(=C)C)C3)CC2C1 (stereo partly drawn) [Compound 4] |  |  |  |  |  |  |  | 
5 |  | more than 5 times |  | more than 10 times |  | more than 10 times | C#CCCC(=O)NCCOCCOCCC(=O)N[C@@H](CCC1(C)N=N1)C(=O)NCCOCCOCCN1CC2CN(CC(=C)[C@@H]3CC[C@@](C)(C=C)[C@H](C(=C)C)C3)CC2C1 (stereo partly drawn) [Compound 5] |  |  |  | 28.4 ± 3.36 | 17.1 ± 0.8 | 14.1 ± 1.72 |  | 
6 | 213 ± 5.29 |  | 306 ± 31.7 |  | 218 ± 9.58 |  | C=C[C@]1(C)CC[C@@H](C(=C)C)C[C@H]1C(=C)C [β-elemene, reference compound] |  |  |  |  |  |  | greatly weakened | can competitively bind to Compound 2

Row | SMILES | IC50 ([1]; A549 cells, 48 h, CCK-8) [µM] | IC50 times lower than that of β-elemene [1] | IC50 ([2]; HuH-1, Huh1 cells, 48 h, CCK-8) [µM] | IC50 times lower than that of β-elemene [2] | IC50 ([3]; U87-MG cells, CCK-8) [µM] | IC50 times lower than that of β-elemene [3] | intracellular Rhodamine Red fluorescence, with UV irradiation ([4]; 20 μM, with UV irradiation (365 nm, 15 min)) | intracellular Rhodamine Red fluorescence, without UV irradiation ([4]; 20 μM, without UV irradiation) | binding of the probe to the target ([4]; conclusion from competition imaging) | IC50 ([1]; A549, 48 h) [µM] | IC50 ([2]; HuH-1, 48 h) [µM] | IC50 [3] [µM] | intensity of intracellular Rhodamine Red fluorescence of Compound 2 in presence of competitor ([4]; competitor β-elemene (50 μM) with Compound 2 (20 μM), UV irradiation) | competitive binding ([4]; versus Compound 2, conclusion from competition imaging)
7 | C=C[C@]1(C)CC[C@@H](C(=C)CN2CC3CN(C)CC3C2)C[C@H]1C(=C)C (stereo partly drawn) [Compound 7] |  |  |  | more than 10 times |  |  |  |  |  | 43.4 ± 2.14 | 24.3 ± 4.02 | 23.3 ± 0.84 |  | 
